In ChEMBL document CHEMBL1145379 (J Med Chem, 2007) one finds Ki and Activity data, which are given here for 47 compounds.

One assay concerns the target Prothrombin (Homo sapiens, UniProt P00734). The assay is described as follows: Inhibition of human F2a. The settings on record: read-out: Ki app.
The next assay addresses Coagulation factor X (Homo sapiens, UniProt P00742). As to the kind of experiment: Inhibition of human F10a. The settings on record: read-out: Ki app.
The next assay has as its system Plasma. The assay is described as follows: Anticoagulant potency in human plasma assessed as concentration for doubling of prothrombin time. It counts as functional.

Coagulation factor X, sequence (P00742 41-179 limits assumed): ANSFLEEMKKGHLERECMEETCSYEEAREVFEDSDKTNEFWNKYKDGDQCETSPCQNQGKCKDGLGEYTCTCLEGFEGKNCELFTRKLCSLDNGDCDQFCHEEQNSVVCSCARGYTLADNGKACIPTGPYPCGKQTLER
Coagulation factor X, sequence (P00742 235-488 limits assumed): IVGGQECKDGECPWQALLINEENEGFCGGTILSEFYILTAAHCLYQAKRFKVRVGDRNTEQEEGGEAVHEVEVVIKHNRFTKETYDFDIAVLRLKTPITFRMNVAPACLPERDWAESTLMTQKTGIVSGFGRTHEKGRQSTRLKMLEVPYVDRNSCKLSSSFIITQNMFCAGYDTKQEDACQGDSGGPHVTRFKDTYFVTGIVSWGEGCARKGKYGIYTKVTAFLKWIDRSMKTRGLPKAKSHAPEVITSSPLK

Turning to `COc1cc(Cl)cc(C(=O)Nc2ccc(Cl)cn2)c1NC(=O)c1scc(CN2CCCC2)c1Cl`, the Ki on Prothrombin stood at 1400 nM; at Coagulation factor X, 0.52 nM. Besides, the Activity with Plasma is 1.6 µM.

Turning to `COc1cc(Cl)cc(C(=O)Nc2ccc(Cl)cn2)c1NC(=O)c1scc(CN(C)c2ncc[nH]2)c1Cl`, the Ki at Prothrombin was 860 nM; on Coagulation factor X, 0.02 nM. Also, the Activity in the assay with Plasma amounted to 1.8 µM.

`COc1cc(Cl)cc(C(=O)Nc2ccc(Cl)cn2)c1NC(=O)c1scc(CN(C)C(N)=O)c1Cl`: the Ki on Prothrombin was 340 nM; at Coagulation factor X, 0.026 nM. The Activity in the assay on Plasma worked out at 2.6 µM.

For `CCNCc1csc(C(=O)Nc2c(OC)cc(Cl)cc2C(=O)Nc2ccc(Cl)cn2)c1Cl`, the Ki at Prothrombin amounted to 2600 nM; at Coagulation factor X, 0.4 nM. Also, in the assay with Plasma, the Activity came to 2.2 µM.

With `COc1cc(Cl)cc(C(=O)Nc2ccc(Cl)cn2)c1NC(=O)c1scc(CN(C)C(=O)NCCN2CCCC2)c1Cl`, the Ki came to 140 nM on Prothrombin and 0.036 nM at Coagulation factor X. The Activity with Plasma amounted to 1.1 µM.

With `COc1cc(Cl)cc(C(=O)Nc2ccc(Cl)cc2)c1NC(=O)c1scc(CN2CCN(C)CC2)c1Cl`, the Ki amounted to 1300 nM at Prothrombin and 0.43 nM at Coagulation factor X. For the same compound, the Activity in the assay with Plasma came to 4.2 µM.

Regarding `COc1cc(Cl)cc(C(=O)Nc2ccc(Cl)cn2)c1NC(=O)c1scc(CN(C)CCCO)c1Cl`, the Ki on Prothrombin came to 1100 nM; on Coagulation factor X, 0.18 nM. Moreover, the Activity in the assay on Plasma amounted to 1.5 µM.

For the compound `COc1cc(Cl)cc(C(=O)Nc2ccc(Cl)cn2)c1NC(=O)c1scc(CN(C)c2ncco2)c1Cl`, the Ki on Prothrombin was found to be 60 nM; on Coagulation factor X it was 0.059 nM. The Activity in the assay on Plasma amounted to 4.2 µM.

Consider `CCNC(=O)N(C)Cc1csc(C(=O)Nc2c(OC)cc(Cl)cc2C(=O)Nc2ccc(Cl)cn2)c1Cl`, for which the Ki amounted to 450 nM on Prothrombin and 0.02 nM at Coagulation factor X. In addition, the Activity with Plasma stood at 5.8 µM.

Turning to `COc1cc(Cl)cc(C(=O)Nc2ccc(Cl)cn2)c1NC(=O)c1scc(CN(C)C(=N)N)c1Cl`, the Ki at Prothrombin was 630 nM; at Coagulation factor X it was ≤ 0.01 nM. Moreover, the Activity in the assay with Plasma was 0.4 µM.

As for `COc1cc(Cl)cc(C(=O)Nc2ccc(Cl)cn2)c1NC(=O)c1scc(Cn2ccnc2NC(C)C)c1Cl`, the Ki at Prothrombin is 1200 nM; at Coagulation factor X it was 0.008 nM. Moreover, the Activity in the assay on Plasma was determined as 2.3 µM.

Take `COc1cc(Cl)cc(C(=O)Nc2ccc(Cl)cn2)c1NC(=O)c1scc(CN2CCC(O)CC2)c1Cl`: the Ki on Prothrombin amounted to 770 nM; on Coagulation factor X, 2.2 nM. Further, the Activity in the assay on Plasma came out at 3.2 µM.

In the case of `COc1cc(Cl)cc(C(=O)Nc2ccc(Cl)cn2)c1NC(=O)c1scc(CN2CCSC2=N)c1Cl`, the values for the Ki at Prothrombin and on Coagulation factor X were 2600 nM and ≤ 0.01 nM, respectively. For the same compound, the Activity in the assay on Plasma was 1.4 µM.

Regarding `COc1cc(Cl)cc(C(=O)Nc2ccc(Cl)cn2)c1NC(=O)c1scc(CN(C)C2=NCCCO2)c1Cl`, the Ki amounted to 160 nM at Prothrombin and 0.012 nM at Coagulation factor X. The Activity with Plasma worked out at 0.22 µM.

As for `COc1cc(Cl)cc(C(=O)Nc2ccc(Cl)cn2)c1NC(=O)c1scc(CN)c1Cl`, the Ki is > 5000 nM at Prothrombin and 1 nM at Coagulation factor X. For the same compound, the Activity in the assay on Plasma is 4.2 µM.

Regarding `COc1cc(Cl)cc(C(=O)Nc2ccc(Cl)cn2)c1NC(=O)c1scc(CN(C)CCCN(C)C)c1Cl`, the Ki at Prothrombin was 300 nM; on Coagulation factor X, 0.024 nM. Besides, the Activity in the assay on Plasma was determined as 0.24 µM.

Turning to `COc1cc(Cl)cc(C(=O)Nc2ccc(Cl)cn2)c1NC(=O)c1scc(CN(C2=NCCO2)C(C)(C)C)c1Cl`, the Ki at Prothrombin is 1700 nM; at Coagulation factor X, 0.12 nM.

For the compound `COc1cc(Cl)cc(C(=O)Nc2ccc(Cl)cn2)c1NC(=O)c1scc(CN(C)CC(C)O)c1Cl` (centres undefined), the Ki on Prothrombin stood at 2100 nM; on Coagulation factor X it was 0.4 nM. Besides, the Activity with Plasma is 1.5 µM.

In the case of `COCCN(Cc1csc(C(=O)Nc2c(OC)cc(Cl)cc2C(=O)Nc2ccc(Cl)cn2)c1Cl)C1=NCCO1`, the values for the Ki on Prothrombin and at Coagulation factor X were 2000 nM and 0.26 nM, respectively. For the same compound, the Activity in the assay on Plasma was determined as 1.1 µM.

In the case of `COc1cc(Cl)cc(C(=O)Nc2ccc(Cl)cn2)c1NC(=O)c1scc(CN(C)C2=NC(=O)CO2)c1Cl`, the Ki turned out to be 90 nM at Prothrombin and 0.026 nM on Coagulation factor X. Besides, the Activity in the assay on Plasma was determined as 2.2 µM.

For `CCN(Cc1csc(C(=O)Nc2c(OC)cc(Cl)cc2C(=O)Nc2ccc(Cl)cn2)c1Cl)C1=NCCO1`, the values for the Ki at Prothrombin and on Coagulation factor X were 470 nM and 0.012 nM, respectively. The Activity in the assay with Plasma came to 0.57 µM.

In the case of `COc1cc(Cl)cc(C(=O)Nc2ccc(Cl)cn2)c1NC(=O)c1scc(Cn2ccnc2N)c1Cl`, the Ki at Prothrombin was 3500 nM; at Coagulation factor X, 0.006 nM. Further, the Activity in the assay with Plasma was 0.77 µM.

Take `COc1cc(Cl)cc(C(=O)Nc2ccc(Cl)cn2)c1NC(=O)c1scc(CN(CC(F)(F)F)C2=NCCO2)c1Cl`: the Ki at Prothrombin is > 5000 nM; on Coagulation factor X, 2.2 nM. Also, in the assay with Plasma, the Activity was 28 µM.

For the compound `CCN(Cc1csc(C(=O)Nc2c(OC)cc(Cl)cc2C(=O)Nc2ccc(Cl)cn2)c1Cl)C1=NC(C)CO1` (centres undefined), the Ki at Prothrombin was found to be 580 nM; on Coagulation factor X, 0.031 nM. Besides, in the assay with Plasma, the Activity came out at 3.8 µM.

Turning to `COc1cc(Cl)cc(C(=O)Nc2ccc(Cl)cn2)c1NC(=O)c1scc(CN(C)C2=NCCS2)c1Cl`, the Ki amounted to 100 nM at Prothrombin and 0.024 nM at Coagulation factor X. Further, the Activity in the assay with Plasma was determined as 1.8 µM.

Take `COc1cc(Cl)cc(C(=O)Nc2ccc(Cl)cn2)c1NC(=O)c1scc(CN2CCOC2=N)c1Cl`: the values for the Ki at Prothrombin and on Coagulation factor X were 1100 nM and ≤ 0.01 nM, respectively. Also, the Activity with Plasma amounted to 0.26 µM.

For `COc1cc(Cl)cc(C(=O)Nc2ccc(Cl)cn2)c1NC(=O)c1scc(CN(C)CCN2CCCC2)c1Cl`, the Ki turned out to be 190 nM at Prothrombin and 0.019 nM at Coagulation factor X. Besides, the Activity with Plasma was determined as 0.24 µM.

For `COc1cc(Cl)cc(C(=O)Nc2ccc(Cl)cn2)c1NC(=O)c1scc(CN(C)C2=NCCC2)c1Cl`, the values for the Ki on Prothrombin and on Coagulation factor X were 970 nM and 0.004 nM, respectively. In addition, the Activity in the assay with Plasma came to 0.4 µM.

On to `COc1cc(Cl)cc(C(=O)Nc2ccc(Cl)cn2)c1NC(=O)c1scc(CN(C)C2=NCC(C)O2)c1Cl` (centres undefined), for which the Ki at Prothrombin is 410 nM; at Coagulation factor X it was 0.12 nM. In addition, the Activity in the assay on Plasma came to 1.2 µM.

In the case of `COc1cc(Cl)cc(C(=O)Nc2ccc(Cl)cn2)c1NC(=O)c1scc(CN(C)C(=O)NCCC(=O)O)c1Cl`, the Ki is 630 nM on Prothrombin and 0.022 nM on Coagulation factor X. Further, in the assay with Plasma, the Activity was 7 µM.

On to `COc1cc(Cl)cc(C(=O)Nc2ccc(Cl)cn2)c1NC(=O)c1scc(CN2C=NCC2)c1Cl`, for which the Ki on Prothrombin came out at 3300 nM; at Coagulation factor X, 0.004 nM. For the same compound, the Activity in the assay with Plasma amounted to 0.26 µM.

Turning to `COc1cc(Cl)cc(C(=O)Nc2ccc(Cl)cn2)c1NC(=O)c1scc(CN(C)CC(C)(C)O)c1Cl`, the Ki on Prothrombin was found to be 1100 nM; at Coagulation factor X, 0.71 nM. Moreover, the Activity in the assay with Plasma came to 5.3 µM.

`COc1cc(Cl)cc(C(=O)Nc2ccc(Cl)cn2)c1NC(=O)c1scc(CN2CCOCC2)c1Cl`: the values for the Ki on Prothrombin and at Coagulation factor X were 1400 nM and 1.4 nM, respectively. Further, the Activity with Plasma turned out to be 4.9 µM.

As for `COc1cc(Cl)cc(C(=O)Nc2ccc(Cl)cn2)c1NC(=O)c1scc(CN(C)C(=O)NCCO)c1Cl`, the Ki at Prothrombin came out at 360 nM; at Coagulation factor X it was 0.05 nM. In addition, the Activity in the assay with Plasma is 4.1 µM.

As for `CCNc1nccn1Cc1csc(C(=O)Nc2c(OC)cc(Cl)cc2C(=O)Nc2ccc(Cl)cn2)c1Cl`, the results for the Ki on Prothrombin and at Coagulation factor X were 1100 nM and 0.005 nM, respectively. Also, the Activity in the assay on Plasma was 1.8 µM.

As for `COc1cc(Cl)cc(C(=O)Nc2ccc(Cl)cn2)c1NC(=O)c1scc(CN2CC(=O)NC2=N)c1Cl`, the Ki was found to be 340 nM on Prothrombin and 0.034 nM at Coagulation factor X. Moreover, in the assay on Plasma, the Activity was found to be 3.3 µM.

With `COc1cc(Cl)cc(C(=O)Nc2ccc(Cl)cn2)c1NC(=O)c1scc(CNC(C)C)c1Cl`, the Ki on Prothrombin stood at 5400 nM; on Coagulation factor X, 1.4 nM.

With `COc1cc(Cl)cc(C(=O)Nc2ccc(Cl)cn2)c1NC(=O)c1scc(Cn2ccnc2C)c1Cl`, the Ki at Prothrombin was 440 nM; on Coagulation factor X, ≤ 0.01 nM. The Activity with Plasma is 1.4 µM.

With `COc1cc(Cl)cc(C(=O)Nc2ccc(Cl)cn2)c1NC(=O)c1scc(CN2CCN=C2SC)c1Cl`, the results for the Ki on Prothrombin and at Coagulation factor X were 2200 nM and 0.004 nM, respectively. Moreover, in the assay on Plasma, the Activity worked out at 0.53 µM.

For `COc1cc(Cl)cc(C(=O)Nc2ccc(Cl)cn2)c1NC(=O)c1scc(CN(C)S(C)(=O)=O)c1Cl`, the Ki at Prothrombin was determined as 340 nM; on Coagulation factor X it was 0.045 nM. The Activity in the assay with Plasma worked out at 2.2 µM.

On to `COc1cc(Cl)cc(C(=O)Nc2ccc(Cl)cn2)c1NC(=O)c1scc(CN(C)CC(O)CO)c1Cl` (centres undefined), for which the Ki on Prothrombin was 1200 nM; at Coagulation factor X, 0.26 nM. In addition, the Activity in the assay on Plasma came to 3.2 µM.

For `CCN(CC)Cc1csc(C(=O)Nc2c(OC)cc(Cl)cc2C(=O)Nc2ccc(Cl)cn2)c1Cl`, the Ki at Prothrombin stood at 1500 nM; on Coagulation factor X it was 0.32 nM. The Activity in the assay with Plasma stood at 2.4 µM.

In the case of `COc1cc(Cl)cc(C(=O)Nc2ccc(Cl)cn2)c1NC(=O)c1scc(CN(C)C(C)=N)c1Cl`, the values for the Ki on Prothrombin and at Coagulation factor X were 920 nM and ≤ 0.01 nM, respectively. Besides, the Activity with Plasma was found to be 0.25 µM.

For `COc1cc(Cl)cc(C(=O)Nc2ccc(Cl)cn2)c1NC(=O)c1scc(CN2CCNC2=N)c1Cl`, the Ki on Prothrombin is 1500 nM; on Coagulation factor X, ≤ 0.01 nM. The Activity with Plasma came out at 0.27 µM.

As to `COc1cc(Cl)cc(C(=O)Nc2ccc(Cl)cn2)c1NC(=O)c1scc(Cn2ccnc2)c1Cl`, the figures for the Ki on Prothrombin and on Coagulation factor X were 510 nM and 0.022 nM, respectively. Besides, in the assay with Plasma, the Activity is 2 µM.

As to `COc1cc(Cl)cc(C(=O)Nc2ccc(Cl)cn2)c1NC(=O)c1scc(CN2CCN=C2C)c1Cl`, the Ki on Prothrombin was 3300 nM; on Coagulation factor X, ≤ 0.01 nM. Besides, the Activity in the assay with Plasma turned out to be 0.32 µM.

For `CCN(C)Cc1csc(C(=O)Nc2c(OC)cc(Cl)cc2C(=O)Nc2ccc(Cl)cn2)c1Cl`, the Ki on Prothrombin is 1700 nM; on Coagulation factor X, 0.22 nM. Moreover, the Activity in the assay on Plasma was found to be 1.4 µM.
